For test [1], the target named is T1, CBX2 ChD (Homo sapiens, UniProt Q14781).
T1 construct: CBX chromodomain constructs; host or cells: E. coli BL21 CodonPlus RIL
T1 sequence (Q14781 12-70 limits assumed): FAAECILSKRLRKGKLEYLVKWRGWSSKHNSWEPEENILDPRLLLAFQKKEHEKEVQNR
The experiment in a line: Direct fluorescence polarization (FP) binding assay. The procedure:
(§1) Bacterial growth was completed at 37° C. in LB media to OD600=2.0, followed by reducing the temperature to 16° C. over 30-60 min and induced with 1 mM IPTG for 16 h. Cells were collected by centrifugation at 6000 rpm for 20 min and resuspended in ChD binding buffer (20 mM Tris, pH 8, 150 mM NaCl, 0.01% Tween-20, 20 mM imidazole) with 1.0 mM PMSF. Bacteria pellets were stored at −80° C. until needed. Pellets were thawed on ice for 10 min in ChD binding buffer, and shaked at 4° C. supplemented with 100 μg/mL lysozyme, 1 mg/mL CHAPS and 1 mM PMSF, for 30 min. Cells were subsequently lysed by sonication (15 W, 30 s on, followed by 30 s off, twice, followed by 20 W for 1 min). The solubilized fraction was collected by centrifugation at 15000 rpm for 40 min at 4° C. Meanwhile, Ni-NTA Agarose resin (QIAGEN, Venlo, Netherlands) was washed with H2O and equilibrated with ChD binding buffer. The soluble fraction was incubated with the prewashed Ni-NTA agarose resin at 4° C. for 2 h. The resin was then washed 3× with ChD purification buffer (20 mM Tris, pH 8, 150 mM NaCl, 0.01% Tween-20, 1 mM PMSF). Proteins were eluted by the addition of 0.5 M imidazole to ChD purification buffer. The elution was diluted with 30% glycerol, flash frozen, and stored at −80° C. until needed. Protein purity was assessed by SDS-PAGE and concentration was determined by the Pierce 660 kit (Thermo Scientific).
Direct fluorescence polarization (FP) binding assay of PSL hits against PcG CBX ChDs. FP assays were conducted as above with slight modifications. Alkyne peptides described above were conjugated with a fluorescein group(5-/6-FAM) through copper catalyzed click reaction as previously described. The FAM-labeled peptide was kept constant at 100 nM. The CBX ChD proteins were titrated by 2-fold series dilutions in the assays. The highest protein concentrations, at which FAM-peptide was completely bound, used for each CBX in the direct binding assays depends on the binding affinity of the peptides. Assays were performed for each peptide in four replicates.

The target in test [2] is T2, CBX7 ChD (Homo sapiens, UniProt O95931).
T2 construct: CBX chromodomain constructs; host or cells: E. coli BL21 CodonPlus RIL
T2 sequence (O95931 11-69 limits assumed): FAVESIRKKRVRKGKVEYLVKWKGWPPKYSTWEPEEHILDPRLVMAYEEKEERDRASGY
The test is described as above. Here is the method: as §1, with “CBX chromodomain constructs (addgene plasmid #25158 (CBX2), #25237 (CBX4), #25296 (CBX6), #25241 (CBX7) and #62514 (CBX8, provided by Cheryl Arrowsmith), Kaustov et al.) were transformed into chemically competent BL21 CodonPlus RIL E. coli cells (Stratagene, La Jolla, Calif.) as N-terminal His6-tagged proteins. Bacterial” for “Bacterial”, “The soluble fraction was incubated with the prewashed Ni-NTA agarose resin at 4° C. for 2 h. The resin was then washed 3× with ChD purification buffer (20 mM Tris, pH 8, 150 mM NaCl, 0.01% Tween-20, 1 mM PMSF). Proteins were eluted by the addition of 0.5 M imidazole to ChD purification buffer. The elution was diluted with 30% glycerol, flash frozen, and stored at −80° C. until needed.” left out
Direct fluorescence polarization (FP) binding assay of PSL hits against PcG CBX ChDs. […]

Molecules are shown by their SMILES. Square brackets hold non-standard residues; d marks the D form. Peptide text beside a SMILES is read from it. * marks the point of attachment. X2 = O=C(NCCCCn1cc(CN*)nn1)c1ccc2c(c1)C1(OC2=O)c2ccc(O)cc2Oc2cc(O)ccc21; Isoxazole3carbonyl(5-iPr) = CC(C)c1cc(C(=O)*)no1; Tyr(3-Cl) = N[C@@H](Cc1ccc(O)c(Cl)c1)C(=O)O; Gly(3-thienyl) = N[C@H](C(=O)O)c1ccsc1; Lys(Et2) = CCN(CC)CCCC[C@H](N)C(=O)O

Take `CC[C@H](C)[C@H](NC(=O)[C@@H](NC(=O)[C@H](Cc1ccc(O)c(Cl)c1)NC(=O)c1cc(C(C)C)on1)c1ccsc1)C(=O)N[C@@H](CCCCN(CC)CC)C(=O)N[C@@H](CO)C(=O)NCc1cn(CCCCNC(=O)c2ccc3c(c2)C2(OC3=O)c3ccc(O)cc3Oc3cc(O)ccc32)nn1` [SW2_104A-FL] ({Isoxazole3carbonyl(5-iPr)}-[Tyr(3-Cl)][Gly(3-thienyl)]I[Lys(Et2)]S-X2): the Kd in test [1] is 0.051 ± 0.036 µM; in test [2], 0.84 ± 0.38 µM.
